From patent publication US20050084914A1, “Assays with primary cells” (priority 2003, published 2005)

Legend:
PPARγ = molecular target: T1, PPARγ (Homo sapiens, UniProt P37231); assay: PPARγ activity assay based on PEPCK expression in primary pre-adipocytes on coded carriers; settings: four donor samples (visceral and subcutaneous pre-adipocytes), shared fluid volume, four days
T1 sequence (P37231 1-505): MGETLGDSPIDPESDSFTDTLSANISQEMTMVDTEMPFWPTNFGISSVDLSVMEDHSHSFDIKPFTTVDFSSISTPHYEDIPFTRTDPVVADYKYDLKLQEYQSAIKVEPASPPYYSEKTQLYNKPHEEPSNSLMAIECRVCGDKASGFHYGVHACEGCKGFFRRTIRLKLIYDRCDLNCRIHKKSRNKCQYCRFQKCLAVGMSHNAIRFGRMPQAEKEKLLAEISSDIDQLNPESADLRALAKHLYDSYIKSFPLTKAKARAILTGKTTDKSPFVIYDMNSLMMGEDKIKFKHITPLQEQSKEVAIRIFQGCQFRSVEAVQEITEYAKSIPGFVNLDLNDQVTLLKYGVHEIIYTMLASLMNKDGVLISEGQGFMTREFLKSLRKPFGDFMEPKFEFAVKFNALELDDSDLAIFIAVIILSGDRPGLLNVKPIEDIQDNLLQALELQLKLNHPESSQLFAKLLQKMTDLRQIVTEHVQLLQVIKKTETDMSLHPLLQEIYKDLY
From the text: This differentiation may be visualized readily and scored by staining lipid droplets that accumulate in the cytoplasm of the adipocytes during and/or after their differentiation. Furthermore, this adipocyte differentiation and/or activation of PPARγ may be followed by measuring the expression levels (RNA and/or protein) of PPARγ target genes (direct or indirect targets), such as PEPCK (phosphoenolpyruvate carboxykinsae) and/or FABP4 (fatty acid binding protein 4), among others.
Staining was via indirect immunofluorescence. Cells were counterstained with a nuclear dye (Hoechst) for data normalization, here and in other assays. […] Each sample of primary cells corresponds to pre-adipocytes isolated from visceral tissue (samples starting with the letter “V”) or isolated from subcutaneous tissue (samples starting with the letters “SC”) and were supplied by Cambrex. […] Each sample was connected to a distinct class of coded carriers (having a distinct code) to permit identification of the sample after combining the different classes of carrier and samples in a shared volume. […] Lipid accumulation and PEPCK expression were then measured with the samples still disposed in the same microplate wells. […]

[1] = system: primary human renal proximal tubule epithelial (HRPTE) cells; assay: proliferative response of primary HRPTE cells (S-phase index); format: cell-based; settings: HRPTE cells in 96-well microplate wells or on coded carriers; various concentrations
Method: This example describes how multiplexed analysis using coded carriers may be used to assay the effects of camptothecin on the proliferative response of primary human renal proximal tubule epithelial (HRPTE) cells, in accordance with aspects of the present teachings; see FIG. 6.
Specifically, HRPTE cells are grown directly in wells of a standard 96-well microplate, to three different cell densities (indicated as the stated number of cells), or on coded carriers that optionally may be placed in wells of the microplate. An “S-phase index” (e.g., the fraction of cells in the S-phase of the cell cycle) is used as a measure of cell proliferation. […] This reduction may be particularly significant in assays on primary cells, because primary cells typically are difficult to obtain and maintain.

HRPTE cells = assay: cytotoxicity response of HRPTE cells (death index, live/dead assay); format: cell-based, human; settings: HRPTE cells in 96-well microplate wells or on coded carriers; various concentrations
Method: This example describes how multiplexed analysis using coded carriers may be used to study the cytotoxicity response of HRPTE cells to staurosporine, in accordance with aspects of the present teachings; see FIG. 7.
Specifically, HRPTE cells are grown directly attached to wells of a standard 96-well microplate, or on coded carriers that optionally may be placed in wells of the microplate. A “death index” (e.g., the fraction of observed cells that are dead) may be used as a measure of cytotoxicity. The death index may be computed using any suitable mechanism, such as a fluorescence-based “live/dead assay.” In an exemplary version of the assay, live cells are labeled green using a membrane-permeant calcein AM, which is cleaved by esterases in live cells to yield cytoplasmic green fluorescence, and dead cells are labeled red using a membrane-impermeant ethidium homodimer-1, which passes through the compromised membranes of dead cells to label nucleic acids with red fluorescence. […] This reduction may be particularly significant in assays on primary cells, because primary cells typically are difficult to obtain and maintain.

With `COc1ccc2c(c1)c(CC(=O)O)c(C)n2C(=O)c1ccc(Cl)cc1` [Indomethacin, indomethacin] the “induction of PEPCK expression as a measure of PPARγ activity” value (PPARγ) was “relatively strong induction”.

In the case of `CC[C@@]1(O)C(=O)OCc2c1cc1n(c2=O)Cc2cc3ccccc3nc2-1` [camptothecin], the “S-phase index as a measure of cell proliferation” value [1] is reported as “S-phase index generally decreases with increasing camptothecin concentration”.

`CN[C@@H]1C[C@H]2O[C@@](C)([C@@H]1OC)n1c3ccccc3c3c4c(c5c6ccccc6n2c5c31)C(=O)NC4` [staurosporine] was tested, and the “death index (fraction of dead cells)” value (HRPTE cells) was “generally increases with increasing staurosporine concentration”.
